Experimental data from article PMC1933452, “Molecular Basis of Resistance to Muramidase and Cationic Antimicrobial Peptide Activity of Lysozyme in Staphylococci” (PLoS Pathogens, 2007).
“And” between values parts separate entries of the source, which are not always exact repeats. Equal entries are not always repeated. Where two headings read alike, the source gives them in different places. Where a SMILES comes first, the peptide text is derived from it. Bridges are numbered along the chain shown (N, C = ends). Where no end group is shown, it is not given here. [ ]: non-standard residue; d: D form. The star is where a group is joined. X1 = CC[C@H](C)CCCCC(=O)*; Dab = NCC[C@H](N)C(=O)O

How the values were obtained:
SA113 = format: cell-based, Staphylococcus aureus; details: for MIC: SA113, serial dilution, BM without glucose with 0.5% xylose, 37 °C, 20–24 h, mean of three to five independent experiments
Experimental: (§1) The overnight cultures were diluted in BM with 0.5% xylose to a concentration of 0.5 × 10^6 CFU per ml and aliquoted in 0.5-ml samples, and cationic agents in different concentrations were added.

graRS::erm = experiment: MIC assay, graRS mutant; format: cell-based, Staphylococcus aureus; details: for Susceptibility of graRS mutant relative to WT: from MIC values; for MIC: graRS::erm, serial dilution, BM without glucose with 0.5% xylose, 37 °C, 20–24 h, mean of three to five independent experiments
Experimental: as §1

oatA::kan = experiment: MIC assay, oatA mutant; format: cell-based, Staphylococcus aureus; details: serial dilution, BM without glucose with 0.5% xylose, 37 °C, 20–24 h, mean of three to five independent experiments
Experimental: as §1

oatA::kan/graRS::erm = experiment: MIC assay, oatA/graRS double mutant; format: cell-based, Staphylococcus aureus; details: for MIC: oatA::kan/graRS::erm, serial dilution, BM without glucose with 0.5% xylose, 37 °C, 20–24 h, mean of three to five independent experiments
Experimental: as §1

dltA::spc = experiment: MIC assay, dltA mutant; format: cell-based, Staphylococcus aureus; details: for MIC: dltA::spc, serial dilution, BM without glucose with 0.5% xylose, 37 °C, 20–24 h, mean of three to five independent experiments
Experimental: as §1

oatA::kan/dltA::spc = experiment: MIC assay, oatA/dltA double mutant; format: cell-based, Staphylococcus aureus; details: for MIC: oatA::kan/dltA::spc, serial dilution, BM without glucose with 0.5% xylose, 37 °C, 20–24 h, mean of three to five independent experiments
Experimental: as §1

graRS::erm (pTXgraRS) = experiment: MIC assay, complemented graRS mutant; format: cell-based, Staphylococcus aureus; details: for MIC: graRS::erm (pTXgraRS), serial dilution, BM without glucose with 0.5% xylose as inductor, 37 °C, 20–24 h, mean of three to five independent experiments
Experimental: as §1

SA113 (pTXgraRS) = experiment: MIC assay, WT overexpressing graRS; format: cell-based, Staphylococcus aureus; details: for MIC: SA113 (pTXgraRS), serial dilution, BM without glucose with 0.5% xylose as inductor, 37 °C, 20–24 h, mean of three to five independent experiments
Experimental: as §1

WT SA113 = experiment: Effects of cationic agents on exponential growth, WT; format: cell-based, Staphylococcus aureus; details: WT SA113, BM 37 °C, agent added at OD578nm 1.0; Lys or heat-inactivated Lys 300 μg/ml, LP9 200 μg/ml, PMB 20 μg/ml, Gdm 8 μg/ml
Experimental: (§2) Overnight cultures were diluted to an OD578nm of 0.1 in 50 ml of BM and the cultures were incubated with shaking at 37 °C. OD was determined every hour. Ten milliliters of each culture were transferred into a new 100-ml flask when the cultures reached an OD578nm of nearly 1.0. Then, cationic agents, such as hen egg-white lysozyme and human lysozyme (Sigma-Aldrich, http://www.sigmaaldrich.com/), LP9 (a lysozyme-derived 9-aa peptide, 107R-A-W-V-A-W-R-N-R115–NH2) (EMC, http://www.microcollections.de/), polymyxin B (Sigma-Aldrich), gallidermin (Genmedics, http://www.genmedics.com/), or mutanolysin (Sigma), were added. Lysozyme was inactivated by heating for 1 h at 100 °C and placed on ice. The OD578nm of all cultures was measured hourly up to 7–8 h and after 24 h.

graRS mutant = experiment: Effects of cationic agents on exponential growth, graRS mutant; format: cell-based, Staphylococcus aureus; details: PMB 20 μg/ml; for Susceptibility of growing culture (OD578nm) / Resumption of growth in the presence of the CAMP: graRS mutant, Gdm 8 μg/ml; for Susceptibility of growing culture (OD578nm): BM 37 °C, agent added at OD578nm 1.0, Lys or heat-inactivated Lys 300 μg/ml, LP9 200 μg/ml; for Resumption of growth in the presence of the CAMP: up to 24 h
Experimental: as §2

dltA mutant = experiment: Effects of cationic agents on exponential growth, dltA mutant; format: cell-based, Staphylococcus aureus; details: LP9 200 μg/ml, PMB 20 μg/ml, Gdm 8 μg/ml; for Susceptibility of growing culture (OD578nm): BM 37 °C, agent added at OD578nm 1.0, Lys or heat-inactivated Lys 300 μg/ml; for Resumption of growth in the presence of the CAMP: up to 24 h
Experimental: as §2

oatA mutant = experiment: Effects of cationic agents on exponential growth, oatA mutant; format: cell-based, Staphylococcus aureus; details: BM 37 °C, agent added at OD578nm 1.0, Lys or heat-inactivated Lys 300 μg/ml, LP9 200 μg/ml
Experimental: as §2

oatA/graRS mutant = experiment: Effects of cationic agents on exponential growth, oatA/graRS mutant; format: cell-based, Staphylococcus aureus; details: BM 37 °C, agent added at OD578nm 1.0, Lys 50 μg/ml, heat-inactivated Lys 300 μg/ml, LP9 200 μg/ml
Experimental: as §2

[1] = test system: PG isolated from oatA mutant; experiment: Turbidometric assay of PG, oatA mutant; format: biochemical, Staphylococcus aureus; details: PG of oatA mutant 0.5 mg/ml, 300 μg/ml, 80 mM PBS pH 6.4, 4 h
Experimental: (§3) One liter of BM was inoculated with an overnight culture of the WT SA113 or the mutants. Strains were grown for 12 h with shaking at 37 °C. Cells were centrifuged, washed two times with cold 0.9% NaCl, diluted in 0.9% NaCl, and boiled for 20 min. After the cells were chilled on ice, they were again centrifuged and washed twice with 0.9% NaCl. The cells were disrupted in a mechanical grinding device using glass beads ∅150–212 μm (Sigma-Aldrich) at 4 °C, centrifuged and washed two times with cold H2Obidest, boiled for 30 min in 2% SDS to remove noncovalently bound proteins, and washed four times with H2Obidest. The cell wall fragments were diluted in 0.1 M Tris/HCl (pH 6.8) and incubated with 0.5 mg/ml trypsin for 16 h at 37 °C to degrade cell-bound proteins. After centrifugation and washing with water, the PG was lyophilized.
(§4) For analyzing the susceptibility of PG to lysozyme, we used a modified method turbidometric assay as described by Clarke. The PG of the WT SA113 and the mutants were sonicated and diluted to 0.5 mg in 1 ml of 80 mM PBS (pH 6.4). After the addition of 300 μg lysozyme per ml, the decrease in optical density was monitored at the beginning (0 h) and after 4 h at OD660nm and calculated as percentages.

oatA/dltA mutant = experiment: Effects of cationic agents on exponential growth, oatA/dltA mutant; format: cell-based, Staphylococcus aureus; details: BM 37 °C, agent added at OD578nm 1.0, Lys 20 μg/ml, LP9 200 μg/ml
Experimental: as §2

[2] = test system: PG isolated from graRS mutant; experiment: Turbidometric assay of PG, graRS mutant; format: biochemical, Staphylococcus aureus; details: PG of graRS mutant 0.5 mg/ml, 300 μg lysozyme per ml, 80 mM PBS pH 6.4, 4 h
Experimental: as §3, §4

[3] = test system: PG isolated from oatA/graRS double mutant; experiment: Turbidometric assay of PG, oatA/graRS mutant; format: biochemical, Staphylococcus aureus; details: PG of oatA/graRS double mutant 0.5 mg/ml, 300 μg lysozyme per ml, 80 mM PBS pH 6.4, 4 h
Experimental: as §3, §4

[4] = test system: PG isolated from dltA mutant; experiment: Turbidometric assay of PG, dltA mutant; format: biochemical, Staphylococcus aureus; details: PG of dltA mutant 0.5 mg/ml, 300 μg lysozyme per ml, 80 mM PBS pH 6.4, 4 h
Experimental: as §3, §4

Row | Molecule | MIC (SA113; 0.5 × 10^6 CFU per ml) | MIC (SA113) | Susceptibility of graRS mutant relative to WT (graRS::erm) | MIC (graRS::erm) | MIC (oatA::kan) | MIC (oatA::kan/graRS::erm) | MIC (dltA::spc) | MIC (oatA::kan/dltA::spc) | MIC (graRS::erm (pTXgraRS)) | MIC (SA113 (pTXgraRS)) | Susceptibility of growing culture (OD578nm) (WT SA113) | Susceptibility of growing culture (OD578nm) (graRS mutant) | Resumption of growth in the presence of the CAMP (graRS mutant) | Susceptibility of growing culture (OD578nm) (dltA mutant) | Resumption of growth in the presence of the CAMP (dltA mutant) | Susceptibility of growing culture (OD578nm) (oatA mutant) | Susceptibility of growing culture (OD578nm) (oatA/graRS mutant) | Hydrolysis of isolated PG (decrease in OD660nm) [1] | also measured
1 | CC[C@H](C)CCCCC(=O)N[C@@H](CCN)C(=O)N[C@H](C(=O)N[C@@H](CCN)C(=O)N[C@H]1CCNC(=O)[C@H]([C@@H](C)O)NC(=O)[C@H](CCN)NC(=O)[C@H](CCN)NC(=O)[C@H](CC(C)C)NC(=O)[C@@H](Cc2ccccc2)NC(=O)[C@H](CCN)NC1=O)[C@@H](C)O [Polymyxin B, polymyxin B] (X1-[Dab]T[Dab][Dab][Dab][dF]L[Dab][Dab]T; lactam 4-C (inferred); N-terminus assumed) | 350 µg/mL | 252.5 µM | 17 fold | 20 μg/ml and 14.4 μM | 350 μg/ml and 252.5 μM | 25 μg/ml and 18 μM | 10 μg/ml and 7.2 μM | 10 μg/ml and 7.2 μM | >800 µg/mL | >500 µg/mL | much less affected | immediate growth arrest | started to grow after some time | more susceptible | unable to resume growth |  |  |  | Increase in resistance by overexpression of graRS (pTXgraRS) in the graRS mutant (graRS::erm (pTXgraRS); from MIC values): approximately 2 fold; Increase in resistance by overexpression of graRS (pTXgraRS) in the WT (SA113 (pTXgraRS); from MIC values): approximately 2 fold; Growth of subculture challenged again (graRS mutant; new culture inoculated from 24-h graRS culture treated with polymyxin B): no growth retardation
2 | Heat-inactivated lysozyme: Catalytic inactive lysozyme, inactivated by heating for 1 h at 100 °C |  |  |  |  |  |  |  |  |  |  | completely insensitive | does not affect |  | inhibited |  | no activity | able to inhibit the growth | no activity | 
3 | Lysozyme | >50,000 μg/ml |  |  | >50,000 μg/ml | 10,000 μg/ml and 694 μM | 600 μg/ml and 41.6 μM | 2,000 μg/ml and 138.8 μM | 30 μg/ml and 2.08 μM | >50,000 μg/ml | >50,000 μg/ml | completely lysozyme resistant | only marginally affected |  | more sensitive |  | only marginally affected | highly susceptible | sensitive to the muramidase activity | Resistance at highest concentration (SA113; WT, at a concentration of 50 mg/ml): completely resistant; Resistance at highest concentration (graRS::erm; graRS mutant, at a concentration of 50 mg/ml): completely resistant; Sensitivity of oatA/graRS double mutant relative to oatA mutant (oatA::kan/graRS::erm; from MIC values): ~17 fold; Sensitivity of dltA single mutant relative to WT (dltA::spc; from MIC values): over 25 fold; Sensitivity of dltA single mutant relative to oatA single mutant (dltA::spc; from MIC values): 5 fold; Sensitivity of oatA/dltA double mutant relative to oatA single mutant (oatA::kan/dltA::spc; from MIC values): > 333 fold and 333 fold; Sensitivity of oatA/dltA double mutant relative to oatA/graRS double mutant (oatA::kan/dltA::spc; from MIC values): 20 fold; Susceptibility of growing culture (OD578nm) (oatA/dltA mutant): stays lysozyme sensitive even after 24 h; Hydrolysis of isolated PG (decrease in OD660nm) [2]: completely resistant; Hydrolysis of isolated PG (decrease in OD660nm) [3]: hydrolysed; Hydrolysis of isolated PG (decrease in OD660nm) [4]: not hydrolyzed
4 | gallidermin (IASKFLCTPGCAKTGSFNSYCC; cysteine pairing not given here; also: lantibiotic; UniProt P21838 31-52, looked up) [lantibiotic, CAMP (Genmedics)] | 9 µg/mL | 4.1 µM | 4 fold | 2.5 μg/ml and 1.14 μM | 9 μg/ml and 4.1 μM | 3 μg/ml and 1.36 μM | 1.2 μg/ml and 0.55 μM | 1.2 μg/ml and 0.55 μM | 9 μg/ml and 4.1 μM | 9 μg/ml and 4.1 μM | inhibited the WT | immediate growth arrest | started to grow after some time | more susceptible | unable to resume growth |  |  |  | 
